pEC50, pIC50: −log10 of the molar value. Read-outs that look alike come from different tables or passages of the source.
Key:
MES SA DX = experiment: Cytotoxicity assay (CellTiter-Glo), MES SA DX; assay type: cell-based, human; conditions: Homo sapiens, read-out: Cancer cell lines IC50, MES SA DX
OVCAR-8 = experiment: Cytotoxicity (GI50) assay, OVCAR-8; assay type: cell-based, human; conditions: OVCAR-8; human ovarian cancer cell line; read-out: Cancer cell lines GI50, OVCAR-8
MCF-7 = experiment: Cytotoxicity (GI50) assay, MCF-7; assay type: cell-based, human; conditions: MCF7; human breast cancer cell line; concentration required to decrease cell growth by 50%; read-out: Cancer cell lines GI50, MCF-7
Tubulin = Tubulin assembly induction; assay type: biochemical
MES SA = experiment: Cytotoxicity assay (CellTiter-Glo), MES SA; assay type: cell-based, human; conditions: MES-SA; human uterine sarcoma cell line; 72 hours, CellTiter-Glo; read-out: Cancer cell lines IC50, MES SA
NCI/ADR-RES = experiment: Cytotoxicity (GI50) assay, NCI/ADR-RES; assay type: cell-based, human; conditions: read-out: Cancer cell lines GI50, NCI/ADR-RES
MDA-MB-435 = experiment: Cytotoxicity (GI50) assay, MDA-MB-435; assay type: cell-based, human; conditions: MDA-MB-435; human melanoma cell line; read-out: Cancer cell lines GI50, MDA-MB-435
SNB-75 = experiment: Cytotoxicity (GI50) assay, SNB-75; assay type: cell-based, human; conditions: SNB-75; human glioblastoma cell line; read-out: Cancer cell lines GI50, SNB-75
[1] = MES SA cell line with marked multidrug resistance, 72 hours, CellTiter-Glo
[2] = Homo sapiens, NCI/ADR-RES, highly drug resistant human ovarian cancer cell line

SMILES | pIC50 (MES SA DX; [1]) | GI50 (OVCAR-8) | GI50 (MCF-7) | pEC50 (Tubulin; […]) | pIC50 (MES SA) | GI50 (NCI/ADR-RES; [2]) | GI50 (MDA-MB-435) | GI50 (SNB-75) | pIC50 (MES SA DX; MES-SA, 72 h) | pEC50 (Tubulin) | GI50 (NCI/ADR-RES; Homo sapiens, NCI/ADR-RES) | GI50 (NCI/ADR-RES; highly drug resistant human ovarian cancer cell line)
C/C(=C\c1csc(C)n1)[C@@H]1C[C@@H]2N(CCO)[C@]2(C)CCC[C@H](C)[C@H](O)[C@@H](C)C(=O)C(C)(C)[C@@H](O)CC(=O)O1 (stereo partly drawn) [compound 11, (1S,3S,7S,10R,11S,12S,16R)-7,11-Dihydroxy-17-(2-hydroxyethyl)-8,8,10,12,16-pentamethyl-3-[(1E)-1-(2-methyl-1,3-thiazol-4-yl)prop-1-en-2-yl]-4-oxa-17-azabicyclo[14.1.0]heptadecane-5,9-dione] | 7.86 | 4.5 nM | 3 nM | 4.74 | 9.03 | 55 nM | – | – | – | – | – | –
C/C(=C\c1csc(CCN)n1)[C@@H]1C[C@@H]2N(CCO)[C@]2(C)CCC[C@H](C)[C@H](O)[C@@H](C)C(=O)C(C)(C)[C@@H](O)CC(=O)O1 (stereo partly drawn) [compound 20, (1S,3S,7S,10R,11S,12S,16R)-3-{(1E)-1-[2-(2-Aminoethyl)-1,3-thiazol-4-yl]prop-1-en-2-yl}-7,11-dihydroxy-17-(2-hydroxyethyl)-8,8,10,12,16-pentamethyl-4-oxa-17-azabicyclo[14.1.0]heptadecane-5,9-dione] | < 5.60 | 8.6 nM | 15 nM | 5.04 | 7.79 | 45 nM | 3.8 nM | 50 nM | – | – | – | –
CC(=Cc1csc(C)n1)C1CC2OC2CCCC(C)C(O)C(C)C(=O)C(C)(C)C(O)CC(=O)O1 (stereo not drawn) [compound 1, epothilone A] | – | 20 nM | 17 nM | – | 8.84 | – | 16 nM | 26 nM | 8.29 | 4.66 | 78 nM | –
CSc1nc(/C=C(\C)[C@@H]2C[C@@H]3N(CC4CC4)[C@]3(C)CCC[C@H](C)[C@H](O)[C@@H](C)C(=O)C(C)(C)[C@@H](O)CC(=O)O2)cs1 (stereo partly drawn) [compound 38, (1S,3S,7S,10R,11S,12S,16R)-17-(Cyclopropylmethyl)-7,11-dihydroxy-8,8,10,12,16-pentamethyl-3-{(1E)-1-[2-(methylsulfanyl)-1,3-thiazol-4-yl]prop-1-en-2-yl}-4-oxa-17-azabicyclo-[14.1.0]heptadecane-5,9-dione] | 8.90 | 15 nM | 18 nM | 5.29 | 10.25 | 18 nM | 9.5 nM | 16 nM | – | – | – | –
C/C(=C\c1ccccn1)[C@@H]1C[C@@H]2N(CCO)[C@]2(C)CCC[C@H](C)[C@H](O)[C@@H](C)C(=O)C(C)(C)[C@@H](O)CC(=O)O1 (stereo partly drawn) [compound 21, (1S,3S,7S,10R,11S,12S,16R)-7,11-Dihydroxy-17-(2-hydroxyethyl)-8,8,10,12,16-pentamethyl-3-[(1E)-1-(pyridin-2-yl)prop-1-en-2-yl]-4-oxa-17-azabicyclo[14.1.0]heptadecane-5,9-dione] | 6.12 | 170 nM | 250 nM | < 4.22 | 9.16 | 4000 nM | 30 nM | 98 nM | – | – | – | –
C/C(=C\c1csc(N)n1)[C@@H]1C[C@@H]2N(CCO)[C@]2(C)CCC[C@H](C)[C@H](O)[C@@H](C)C(=O)C(C)(C)[C@@H](O)CC(=O)O1 (stereo partly drawn) [compound 15, (1S,3S,7S,10R,11S,12S,16R)-3-[(1E)-1-(2-Amino-1,3-thiazol-4-yl)prop-1-en-2-yl]-7,11-dihydroxy-17-(2-hydroxyethyl)-8,8,10,12,16-pentamethyl-4-oxa-17-azabicyclo[14.1.0]heptadecane-5,9-dione] | < 6.00 | 290 nM | 330 nM | 4.89 | 7.44 | 3800 nM | 220 nM | 280 nM | – | – | – | –
CSc1nc(/C=C(\C)[C@@H]2C[C@@H]3N(CCO)[C@]3(C)CCC[C@H](C)[C@H](O)[C@@H](C)C(=O)C(C)(C)[C@@H](O)CC(=O)O2)cs1 (stereo partly drawn) [compound 12, (1S,3S,7S,10R,11S,12S,16R)-7,11-Dihydroxy-17-(2-hydroxyethyl)-8,8,10,12,16-pentamethyl-3-{(1E)-1-[2-(methylsulfanyl)-1,3-thiazol-4-yl]prop-1-en-2-yl}-4-oxa-17-azabicyclo[14.1.0]-heptadecane-5,9-dione] | 9.18 | 75 nM | 28 nM | 4.85 | 9.89 | 55 nM | 42 nM | 60 nM | – | – | – | –
CSc1nc(/C=C(\C)[C@@H]2C[C@@H]3N(CCN)[C@]3(C)CCC[C@H](C)[C@H](O)[C@@H](C)C(=O)C(C)(C)[C@@H](O)CC(=O)O2)cs1 (stereo partly drawn) [compound 37, (1S,3S,7S,10R,11S,12S,16R)-17-(2-Aminoethyl)-7,11-dihydroxy-8,8,10,12,16-pentamethyl-3-{(1E)-1-[2-(methylsulfanyl)-1,3-thiazol-4-yl]prop-1-en-2-yl}-4-oxa-17-azabicyclo[14.1.0]heptadecane-5,9-dione] | 7.92 | 63 nM | 14 nM | 5.21 | 9.97 | 70 nM | 15 nM | 23 nM | – | – | – | –
C/C(=C\c1csc(C)n1)[C@@H]1C[C@@H]2O[C@]2(C)CCC[C@H](C)[C@H](O)[C@@H](C)C(=O)C(C)(C)[C@@H](O)CC(=O)N1 [compound 5, ixabepilone, reference compound] | – | – | – | 5.35 | – | 1400 nM | – | – | – | – | – | –
CSc1cc(/C=C(\C)[C@@H]2C[C@@H]3N(CCO)[C@]3(C)CCC[C@H](C)[C@H](O)[C@@H](C)C(=O)C(C)(C)[C@@H](O)CC(=O)O2)nn1C (stereo partly drawn) [compound 23, (1S,3S,7S,10R,11S,12S,16R)-7,11-Dihydroxy-17-(2-hydroxyethyl)-8,8,10,12,16-pentamethyl-3-{(1E)-1-[1-methyl-5-(methylsulfanyl)-1H-pyrazol-3-yl]prop-1-en-2-yl}-4-oxa-17-azabicyclo[14.1.0]heptadecane-5,9-dione] | 7.42 | 10 nM | 78 nM | 5.34 | 9.66 | – | 12 nM | 10 nM | – | – | – | –
C/C(=C\c1csc(CN)n1)[C@@H]1C[C@@H]2N(CCO)[C@]2(C)CCC[C@H](C)[C@H](O)[C@@H](C)C(=O)C(C)(C)[C@@H](O)CC(=O)O1 (stereo partly drawn) [compound 13, (1S,3S,7S,10R,11S,12S,16R)-3-{(1E)-1-[2-(Aminomethyl)-1,3-thiazol-4-yl]prop-1-en-2-yl}-7,11-dihydroxy-17-(2-hydroxyethyl)-8,8,10,12,16-pentamethyl-4-oxa-17-azabicyclo[14.1.0]heptadecane-5,9-dione] | 9.07 | 93 nM | 65 nM | < 4.22 | 10.11 | 2800 nM | 20 nM | 130 nM | – | – | – | –
CSc1nc(/C=C(\C)[C@@H]2C[C@@H]3N(CCN=[N+]=[N-])[C@]3(C)CCC[C@H](C)[C@H](O)[C@@H](C)C(=O)C(C)(C)[C@@H](O)CC(=O)O2)cs1 (stereo partly drawn) [compound 34, (1S,3S,7S,10R,11S,12S,16R)-17-(2-Azidoethyl)-7,11-dihydroxy-8,8,10,12,16-pentamethyl-3-{(1E)-1-[2-(methylsulfanyl)-1,3-thiazol-4-yl]prop-1-en-2-yl}-4-oxa-17-azabicyclo[14.1.0]heptadecane-5,9-dione] | 9.28 | 15 nM | 13 nM | 5.27 | 9.62 | 3.2 to 8.8 nM | 7.3 nM | 22 nM | – | – | – | 3.2 nM
CC(=Cc1csc(C)n1)C1CC=CCCCC(C)C(O)C(C)C(=O)C(C)(C)C(O)CC(=O)O1 (stereo not drawn) [compound 3, epothilone C, reference compound] | – | 110 nM | 70 nM | – | 7.50 | – | – | – | – | 4.74 | – | –
CSc1nc(/C=C(\C)[C@@H]2C[C@@H]3N[C@]3(C)CCC[C@H](C)[C@H](O)[C@@H](C)C(=O)C(C)(C)[C@@H](O)CC(=O)O2)cs1 [compound 14, (1S,3S,7S,10R,11S,12S,16R)-7,11-Dihydroxy-8,8,10,12,16-pentamethyl-3-{(1E)-1-[2-(methyl-sulfanyl)-1,3-thiazol-4-yl]prop-1-en-2-yl}-4-oxa-17-azabicyclo[14.1.0]heptadecane-5,9-dione] | 8.25 | 16 nM | 4 nM | 5.30 | 9.55 | – | 4.5 nM | 11 nM | – | – | – | –
C/C(=C\c1csc(C)n1)[C@@H]1C[C@@H]2N[C@]2(C)CCC[C@H](C)[C@H](O)[C@@H](C)C(=O)C(C)(C)[C@@H](O)CC(=O)O1 [compound 10, (1S,3S,7S,10R,11S,12S,16R)-7,11-Dihydroxy-8,8,10,12,16-pentamethyl-3-[(1E)-1-(2-methyl-1,3-thiazol-4-yl)prop-1-en-2-yl]-4-oxa-17-azabicyclo[14.1.0]heptadecane-5,9-dione] | 9.29 | 1.5 nM | 2 nM | 4.72 | 10.40 | 35 nM | – | – | – | – | – | –
